Legend:
Assay type in all cases: cell-based
Details in all cases: ex vivo 1% w/v fecal slurry from 12 subjects, glycan 0.5% w/v, 37° C., 18 hours, anaerobic
[1] = test system: Enterobacteriaceae/Escherichia/Shigella microbes; assay: Ex vivo fecal slurry assay, 16S rRNA sequencing (Example 17)
Text: (§1) An ex vivo assay was designed to determine if glycans can be used to modulate a complex community of microorganisms and if the glycans produced consistent effects across communities obtained from multiple (twelve) subjects. Fecal samples and slurries were handled in an anaerobic chamber (AS-580, Anaerobe Systems) featuring a palladium catalyst. Glycans ara100, gal100, glu60man40, glu100, glu50gal50, gal33man33ara33, man75gal25, glu33gal33man34, glu33gal33Ara33, man100, man52glu29gal19 and commercially available glycans lactulose (Alfa Aesar) and FOS (Nutraflora FOS; NOW Foods, Bloomingdale Ill.) were included in the study. The fecal sample donations obtained from 12 subjects were stored at −80° C. To prepare working stocks the fecal samples were transferred into the anaerobic chamber and allowed to thaw.

[2] = test system: Ruminococcaceae/Ruminococcus microbes; assay: Ex vivo fecal slurry assay, 16S rRNA sequencing (Example 21)
Text: as §1

[3] = test system: Enterococcaceae/Enterococcus and/or Bifidobacteriaceae/Bifidobacterium; assay: Ex vivo fecal slurry assay, 16S rRNA sequencing (Example 15)
Text: as §1

[4] = test system: Enterobacteriales/Enterobacteriaceae microbes; assay: Ex vivo fecal slurry assay, 16S rRNA sequencing (Example 19)
Text: as §1

[5] = test system: Firmicutes, Proteobacteria, and/or Actinobacteria; assay: Ex vivo fecal slurry assay, 16S rRNA sequencing (Example 11)
Text: as §1

[6] = test system: Actinobacteria and/or Coriobacteriaceae/Gordonibacter; assay: Ex vivo fecal slurry assay, 16S rRNA sequencing (Example 13)
Text: as §1

[7] = test system: Enterococcaceae/Enterococcus and/or Enterobacteriaceae/Escherichia/Shigella microbes; assay: Ex vivo fecal slurry assay, 16S rRNA sequencing (Example 18)
Text: as §1

## OC[C@H]1O[C@@H](O[C@@H]2[C@@H](CO)OC(O)(CO)[C@H]2O)[C@H](O)[C@@H](O)[C@H]1O (mixture of isomers) [lactulose]
[1]
  levels of Enterobacteriaceae/Escherichia/Shigella microbes: decrease
[2]
  levels of Ruminococcaceae/Ruminococcus microbes: decrease
[3]
  levels Enterococcaceae/Enterococcus and/or Bifidobacteriaceae/Bifidobacterium: increase
[4]
  levels of Enterobacteriales/Enterobacteriaceae microbes: decrease
[5]
  levels of Firmicutes, Proteobacteria, and/or Actinobacteria: decrease
[6]
  levels of Actinobacteria and/or Coriobacteriaceae/Gordonibacter: decrease
[7]
  levels of Enterococcaceae/Enterococcus and/or Enterobacteriaceae/Escherichia/Shigella microbes: decrease
